Experimental findings from patent US20250197399A1, “COMPOUNDS, COMPOSITIONS, AND METHODS” (Tenvie Therapeutics, Inc., priority 2022, published 2025) are described below.

Molecules are shown by their SMILES. pIC50: −log10 of the molar value. Like-named read-outs stand apart in the source and are kept apart here.

The test concerns NLRP3. Briefly: IL-1β secretion assay in PMA-differentiated, LPS/nigericin-stimulated THP-1 cells (ELISA). It is filed as cell-based. Particulars: 25 ng/mL LPS then nigericin, IL-1β in supernatant. As for the experimental part: Compounds as provided herein were tested in the following assay. Cell culture medium employed contained RPMI 1640 medium (89%), FBS (10%), Pen/Strep (1%), and 2-mercaptoethanol (0.05 mM). Freezing medium was made up of 90% FBS and 10% DMSO. THP-1 cells were removed from the liquid nitrogen and placed into a 37° C. water bath to thaw, until signs of ice dissipated. The cells were then added to 9 mL of warm cell culture medium and centrifuged for 5 minutes at 1000 rpm. The supernatant was discarded, and the cells were resuspended in new cell culture medium. THP-1 cells were then split and cultured in the cell culture medium, being passaged every 2-3 days with the cell density will be maintained between 5×10^5 and 1.5×10^6 viable cells/mL.
PMA was dissolved in DMSO to make a stock solution at 5 mg/ml and stored in 10 μl aliquots at −20° C. for single use. PMA is added to normal growth medium. LPS was diluted with 1 mL of water solution to provide a 1 mg/mL stock solution and stored in 15 μL aliquots at −20° C. for single use. Nigericin is diluted in ice cold 100% ethanol to 5 mg/ml (6.7 mM) and stored in 75 μL aliquots at −20° C. for single use. Serum-free media contains RPMI 1640 medium (99%), Pen/Strep (1%), and 2-mercaptoethanol (0.05 mM). The two control conditions used to qualify and normalize test compound dose-response curves were as follows: High Control=25 ng/mL LPS, […], 0.5% DMSO, Low Control=25 ng/mL, LPS, 0.5% DMSO.
THP-1 cells were diluted to provide a suspension at a concentration of 1.0×10^6 cells/mL with the total volume of suspension required to enable the desired number of assay plates. The growth media was supplemented with PMA (5 ng/mL final concentration) and the cells were incubated at 37° C. under a humidified atmosphere of 5% CO2 for 40 h.
All media was carefully aspirated from each culture flask. The cells were washed carefully with 1×DPBS. The cells were then briefly digested with trypsin LE for 5 minutes at 23° C. and immediately resuspended in cell growth media. After resuspension, the cells were centrifuged at 1000 rpm for 3 minutes and the supernatant was discarded. The cells were resuspended in DPBS and once again centrifuged at 1000 rpm for 5 minutes. The supernatant was discarded and the cell pellet was resuspended in serum-free media supplemented with LPS (25 ng/mL final concentration) to enable the distribution of 30K THP-1 cells within 45 μL of media into each well of 384-well PDL-coated plates. The 384-well plates were then incubated at 37° C. under a humidified atmosphere of 5% CO2 for 2 h. Following this period, test compounds were dispensed by Tecan across the desired concentration range with all wells normalized to a final 0.5% DMSO concentration. The plates were then then incubated at 37° C. under a humidified atmosphere of 5% CO2 for 1 h. Following this period, 5 μL of the 5 mg/mL nigericin stock solution was added to each of the appropriate wells and plates were centrifuged at 1000 rpm for 30 seconds. The plates were the immediately reintroduced to the incubator at 37° C. under a humidified atmosphere of 5% CO2 for 2 h. After this time, 35 μL/well of supernatant was collected and transferred into v-bottom plate and centrifuged at 1000 rpm for 1 minute. These supernatant aliquots were analyzed using an IL-Iβ detection kit as described below. If needed, the test samples could be snap frozen and stored at −80° C. until analyzed.
To prepare each ELISA plate, capture antibody (mAb Mt175) was diluted with PBS to a final concentration of […] and then 20 μL of this solution was added to each well of the ELISA plate. Each plate was allowed to incubate overnight at 4° C. The next day, the capture antibody solution was removed and discarded. Each ELISA plate was washed 4 times with PBST followed by the addition of 25 µL/well of blocking buffer (Licor-927-40010) supplemented with 0.1% Tween 20. Each ELISA plate was then allowed to incubate for 1 hour at 23° C. […]

Setting [1] is: Homo sapiens, THP-1, THP-1 cells, read-out: Activity (IC50 class).
Where [2] appears, read: THP-1 cells, read-out: Activity.
The mark [3] stands for this setting: THP-1 cells, read-out: Activity (IC50 class).
Setting [4] is: Homo sapiens, THP-1, THP-1 cells, read-out: Activity.

Take `O=C(CN1CC2(CC2(F)F)c2cc(C(F)(F)F)ccc2C1=O)Nc1ncc(Cl)cn1` (single isomer, unassigned) [Example 38, N-(5-chloropyrimidin-2-yl)-2-[1′,1′-difluoro-6-(trifluoromethyl)-1-oxospiro[3H-isoquinoline-4,2′-cyclopropane]-2-yl]acetamide]: the pIC50 under setting [1] is greater than 6.00 and the pIC50 under setting [2] is 6.90.
Take `C[C@]1(O)C[C@@H](NC(=O)CN2CC3(CC3(F)F)c3cc(Br)ccc3C2=O)C1` (single isomer, unassigned) [Example 21, N-(3-cis-hydroxy-3-methylcyclobutyl)-2-[6-bromo-1′,1′-difluoro-1-oxospiro[3H-isoquinoline-4,2′-cyclopropane]-2-yl]acetamide]: the pIC50 reads like this: under setting [2], 7.24; under setting [3], greater than 6.00.
In the same order, the values of `Cc1cnc(NC(=O)CN2CC3(CC3(F)F)c3c(ccc(C4CC4)c3F)C2=O)nc1` (single isomer, unassigned) [Example 37, N-(5-methylpyrimidin-2-yl)-2-[6-cyclopropyl-1′,1′,5-trifluoro-1-oxospiro[3H-isoquinoline-4,2′-cyclopropane]-2-yl]acetamide] are 7.11 and greater than 6.00.
In the same order, the values of `O=C(CN1CC2(CC2(F)F)c2cc(C(F)(F)F)ccc2C1=O)Nc1ncc(Cl)cn1` (single isomer, unassigned) [Example 39, N-(5-chloropyrimidin-2-yl)-2-[1′,1′-difluoro-6-(trifluoromethyl)-1-oxospiro[3H-isoquinoline-4,2′-cyclopropane]-2-yl]acetamide] are 5.16 and 5.00 to 6.00.
For `Cc1cnc(NC(=O)CN2CC3(CC3(F)F)c3cc(Br)ccc3C2=O)nc1` (single isomer, unassigned) [Example 18, N-(5-methylpyrimidin-2-yl)-2-[6-bromo-1′,1′-difluoro-1-oxospiro[3H-isoquinoline-4,2′-cyclopropane]-2-yl]acetamide], the pIC50 by setting is: under setting [1], 5.00 to 6.00; under setting [2], 5.46.
Turning to `O=C(CN1CC2(CC2(F)F)c2cc(Br)ccc2C1=O)Nc1ncc2cn[nH]c2n1` (single isomer, unassigned) [Example 64, 2-(6-bromo-1′,1′-difluoro-1-oxospiro[3H-isoquinoline-4,2′-cyclopropane]-2-yl)-N-(1H-pyrazolo[3,4-d]pyrimidin-6-yl)acetamide], the pIC50 under setting [1] is greater than 6.00 and the pIC50 under setting [2] was 8.10.
In the case of `C[C@]1(O)C[C@@H](NC(=O)CN2CC3(CC3(F)F)c3cc(C4(F)CC4)ccc3C2=O)C1` (single isomer, unassigned) [Example 22, N-(3-cis-hydroxy-3-methylcyclobutyl)-2-[1′,1′-difluoro-6-(1-fluorocyclopropyl)-1-oxospiro[3H-isoquinoline-4,2′-cyclopropane]-2-yl]acetamide], the pIC50 under setting [2] is 5.08.
As to `C[C@]1(O)C[C@@H](NC(=O)CN2C[C@]3(C[C@H]3F)c3c(ccc(I)c3F)C2=O)C1` [Example 5, N-(3-cis-hydroxy-3-methylcyclobutyl)-2-[(2′s,4r)-2′,5-difluoro-6-iodo-1-oxospiro[3H-isoquinoline-4,1′-cyclopropane]-2-yl]acetamide], the pIC50 runs as follows: under setting [4], 8.70; under setting [1], greater than 6.00.
As to `Cc1cnc(NC(=O)CN2CC(C(F)(F)F)c3cc(I)ccc3C2=O)nc1` (centres unmarked) [Example 8, 2-(6-iodo-1-oxo-4-(trifluoromethyl)-3,4-dihydroisoquinolin-2(1H)-yl)-N-(5-methylpyrimidin-2-yl)acetamide], the pIC50 runs as follows: under setting [4], 7.36; under setting [1], greater than 6.00.
For `O=C(CN1CC(C(F)(F)F)c2cc(I)ccc2C1=O)Nc1ncc(Cl)cn1` (centres unmarked) [Example 7, N-(5-chloropyrimidin-2-yl)-2-(6-iodo-1-oxo-4-(trifluoromethyl)-3,4-dihydroisoquinolin-2(1H)-yl)acetamide], in that order: 7.77 and greater than 6.00.
As for `O=C(CN1CC2(CC2(F)F)c2cc(C(F)(F)F)ccc2C1=O)Nc1ncc(F)cn1` (single isomer, unassigned) [Example 41, N-(5-fluoropyrimidin-2-yl)-2-[1′,1′-difluoro-6-(trifluoromethyl)-1-oxospiro[3H-isoquinoline-4,2′-cyclopropane]-2-yl]acetamide], the pIC50 is 7.17 under setting [2] and greater than 6.00 under setting [3].
In the case of `C[C@]1(O)C[C@@H](NC(=O)CN2C[C@]3(C[C@H]3F)c3c(ccc(C4CC4)c3F)C2=O)C1` [Example 6, N-(3-cis-hydroxy-3-methylcyclobutyl)-2-[(2′s,4r)-2′,5-difluoro-6-cyclopropyl-1-oxospiro[3H-isoquinoline-4,1′-cyclopropane]-2-yl]acetamide], the pIC50 was 7.14 under setting [4] and greater than 6.00 under setting [1].
Consider `O=C(CN1CC2(CC2(F)F)c2cc(C3CC3)ccc2C1=O)Nc1ncc(F)cn1` (single isomer, unassigned) [Example 29, N-(5-fluoropyrimidin-2-yl)-2-[6-cyclopropyl-1′,1′-difluoro-1-oxospiro[3H-isoquinoline-4,2′-cyclopropane]-2-yl]acetamide], for which the pIC50 is 7.07 under setting [2] and greater than 6.00 under setting [3].
Turning to `Cc1cnc(NC(=O)CN2CC3(CC3(F)F)c3cc(C4(F)CC4)ccc3C2=O)nc1` (single isomer, unassigned) [Example 24, N-(5-methylpyrimidin-2-yl)-2-[1′,1′-difluoro-6-(1-fluorocyclopropyl)-1-oxospiro[3H-isoquinoline-4,2′-cyclopropane]-2-yl]acetamide], the pIC50 under setting [1] was 5.00 to 6.00 and the pIC50 under setting [2] is 5.22.
Consider `O=C(CN1CC2(CC2)c2cc(Br)ccc2C1=O)NC1CC(O)(C2CC2)C1` (single isomer, unassigned) [Example 56, 2-(6-bromo-1-oxospiro[3H-isoquinoline-4,1′-cyclopropane]-2-yl)-N-(3-cyclopropyl-3-hydroxycyclobutyl)acetamide], for which the pIC50 under setting [2] is 6.44 and the pIC50 under setting [3] was greater than 6.00.
For `C[C@]1(O)C[C@@H](NC(=O)CN2CC(C(F)(F)F)c3cc(I)ccc3C2=O)C1` (single isomer, unassigned) [Example 11, N-(3-cis-hydroxy-3-methylcyclobutyl)-2-(6-iodo-1-oxo-4-(trifluoromethyl)-3,4-dihydroisoquinolin-2(1H)-yl)acetamide], in that order: 7.24 and greater than 6.00.
Take `O=C(CN1C[C@]2(C[C@H]2F)c2cc(Br)ccc2C1=O)Nc1ncc2cn[nH]c2n1` [Example 54, 2-[(2′R,4S)-6-bromo-2′-fluoro-1-oxospiro[3H-isoquinoline-4,1′-cyclopropane]-2-yl]-N-(1H-pyrazolo[3,4-d]pyrimidin-6-yl)acetamide]: the pIC50 reads like this: under setting [4], 8.30; under setting [1], greater than 6.00.
`O=C(CN1CC2(CC2(F)F)c2c(ccc(C(F)(F)F)c2F)C1=O)Nc1ncc(Cl)cn1` (single isomer, unassigned) [Example 15, N-(5-chloropyrimidin-2-yl)-2-[1′,1′,5-trifluoro-6-(trifluoromethyl)-1-oxospiro[3H-isoquinoline-4,2′-cyclopropane]-2-yl]acetamide]: the pIC50 under setting [2] is 7.20 and the pIC50 under setting [3] is greater than 6.00.
